One data set has as its target T1, CYP2B6 (Homo sapiens, UniProt P20813).
T1 sequence (P20813 1-491): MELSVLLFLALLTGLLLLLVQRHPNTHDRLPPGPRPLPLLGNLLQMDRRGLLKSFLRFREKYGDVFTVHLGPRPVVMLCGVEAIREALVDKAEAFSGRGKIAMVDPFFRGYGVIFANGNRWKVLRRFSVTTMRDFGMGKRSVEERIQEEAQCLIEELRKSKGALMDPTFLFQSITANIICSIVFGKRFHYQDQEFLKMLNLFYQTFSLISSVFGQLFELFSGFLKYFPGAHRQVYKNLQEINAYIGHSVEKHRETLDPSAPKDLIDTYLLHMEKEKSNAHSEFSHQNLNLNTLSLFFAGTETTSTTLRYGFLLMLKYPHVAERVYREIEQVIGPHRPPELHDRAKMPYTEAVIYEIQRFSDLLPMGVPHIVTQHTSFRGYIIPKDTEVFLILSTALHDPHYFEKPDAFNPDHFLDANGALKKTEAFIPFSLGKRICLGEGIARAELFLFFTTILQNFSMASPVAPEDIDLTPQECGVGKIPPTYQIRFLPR
As to the kind of experiment: in vitro. To be noted: both, pH 7.4.

Data set [1] can be described thus: Plasma protein binding by equilibrium dialysis. Format: in vitro ADME, mouse. The settings on record: for % Recovery / % Unbound: mouse plasma. On the procedure:
Samples of spiked plasma and blank buffer (Dulbecco's phosphate-buffered saline, DPBS) and spiked brain homogenate and blank DPBS added to opposing sides of a dialysis membrane were collected from triplicate equilibrium dialysis chambers prior to (t=0) and following 1, 2, 4 and 6 hours of incubation at 37° C. […] The LC-MS/MS method(s) for analytes (Compound I-19, Compound A and Compound B) was cross-qualified for the analysis of the DPBS samples.
A secondary stock solution of 200 μM (74.2 ug/mL) will be prepared in DMSO. This secondary stock solution will then be diluted 100-fold to 2 μM ([…]) with male CD-1 mouse plasma and brain homogenate (1:2 v/v brain:Dulbecco's phosphate buffered saline, pH 7-7.2) or buffer (DPBS).
To 2.97 mL aliquots of thawed mouse plasma or brain homogenate warmed to 37° C., 30 ul aliquots of the secondary stock solution of the test compound will be added for final concentrations of 2 μM (0.742 ug/mL). An appropriate volume of warmed buffer (DPBS) will also be spiked with the test compound at a concentration of 2 μM ([…]). Triplicate aliquots (50 μL) of each spiked plasma, brain homogenate and buffer solution will be collected prior to dialysis into labeled 1.5 mL polypropylene tubes and then stored at approximately −80° C. until bioanalysis.
Equilibrium dialysis will be performed in a 96-well Teflon dialysis unit (HTDialysis, Gales Ferry, CT). Each well of the unit consists of two chambers separated by a vertically aligned dialysis membrane (regenerated cellulose) with a molecular weight cut-off of 12-14 KDa. The equilibrium dialysis membranes will first be presoaked in deionized water for 30 min, then soaked in 20% ethanol for 20 min, followed by rinsing twice with deionized water.
The equilibrium dialysis apparatus will be assembled according to the manufacturer's directions. One chamber of each well will be immediately filled with 150 μL of blank buffer (to prevent membrane dehydration). Aliquots (150 μL) of spiked plasma, spiked brain homogenate and spiked buffer will then be added to the opposing chamber in each well. Three wells per time point per matrix will be used. The top of the plate will be sealed with an adhesive sealing film to prevent evaporation and maintain constant pH during incubation.
The dialysis apparatus will be incubated at 37° C. in an orbital shaker/incubator (Lab-Line Enviro Shaker) set at 75 rpm.
Following 1, 2, 4 and 6 hours of incubation, samples from each plasma, brain homogenate and buffer compartment will be collected and the sample volume will be documented.
Background: In equilibrium dialysis only unbound substance equilibrates across the membrane.

The nature of data set [2]: Stability in components of human blood. The data set is classed as in vitro ADME. To be noted: 0.5 mM, 37° C., 0-120 min. On the procedure: FIG. 3A. […] Compound I-19 in components of human blood. Red blood cells and plasma were isolated from whole blood. […] Values represent mean+SEM of n=3 separate experiments.
FIG. 3B. Stability of Compound I-4 in components of human blood. Red blood cells and plasma were isolated from whole blood. […] Values represent mean+SEM of n=3 separate experiments.
Human and rat blood were centrifuged to separate out red blood cells at 1174×g for 15 min. The upper plasma level was aspirated with a micropipette and placed in a bleach solution for disposal. The RBC pellet was resuspended in sterile isotonic saline. The pellet was gently resuspended by rocking the tube. The sample was then centrifuged again to collect the RBC pellet and then resuspended and washed one more time following the same procedure. A total of three was done. Following the last wash and centrifugation, the RBCs were resuspended with PBS; and mixed by inversion. Aliquots of the resuspended and washed RBCs were then placed into 4 reaction tubes. These tubes were centrifuged to collect the RBCs. The fluid level was marked on each tube, then the supernatant was aspirated off and the cells resuspended with room temperature PBS pH 7.4 to the original mark. An aliquot of the RBC suspension was added to four sterile tubes containing PBS pH 7.4 at room temperature. […]

Setting [3] is: dialysis time 1 h, 2 μM, 37° C.
The mark [4] stands for this setting: dialysis time 2 h, 2 μM, 37° C.
The mark [5] stands for this setting: dialysis time 4 h, 2 μM, 37° C.
Setting [6] is: dialysis time 6 h, 2 μM, 37° C.

One may read the inhibition as the drop in the measured response relative to a control, in per cent. Read a high inhibition as a response far below the control. For the compound `OC1(c2ccc(Cl)cc2)c2ccccc2C2=NCCN21` (centres unmarked) [Compound A, 5-(4-chlorophenyl)-2,3-dihydroimidazo[1,2-b]isoindol-5-ol, reference compound], the inhibition at 10 µM against CYP2B6 is 62%.

As for `Clc1ccc(C2(OCC3OCCO3)c3ccccc3C3=NCCN32)cc1` (centres unmarked) [Compound I-19], the “% unbound in plasma” value in data set [1] (2 μM, 6 hours of dialysis, 37° C.) stood at 3.72±0.564%. In addition, the “fraction unbound to plasma” value in data set [1] (2 μM, equilibrium dialysis) turned out to be 0.0372. Besides, the “% recovery, plasma” value in data set [1] (6 hours of dialysis) stood at 57.1±0.567%. The “% Recovery” value in data set [1] (setting [3]) is 87.9 ± 3.05%; in data set [1] (setting [4]) it was 80.1 ± 2.93%; in data set [1] (setting [5]), 67.6 ± 3.41%; in data set [1] (setting [6]) it was 57.1 ± 0.567%. In addition, the “% Unbound” value in data set [1] (setting [3]) was 1.43%; in data set [1] (setting [4]) it was 1.91 ± 0.158%; in data set [1] (setting [5]), 3.20 ± 0.700%; in data set [1] (setting [6]), 3.72 ± 0.564%. Moreover, the “% parent compound remaining” value in data set [2] (human red blood cells) and in data set [2] (human whole blood) was “time-dependent decrease in the amount of parent compound present” throughout.

The values above are taken from US20250108038A1 (priority 2023, published 2025).
